# Source: US10849906B2, “Use of Akt2 in diagnosis and treatment of tumor” (priority 2015, dated 2020)
# Experiments:
# Jurkat cells = assay: Apoptosis by Annexin V-FITC PI double staining, Jurkat; format: cell-based, human; conditions: compared to the only/single dexamethasone group; FIG. 2F, 4J
# Procedure: (§1) Apoptosis was detected by Annexin V-FITC PI double staining method (flow cytometry kit (FITC, PI double staining), Sangon Biotech (Shanghai) Co., Ltd.)), and the collected cells were washed once with phosphate buffered saline (PBS) (135 mM NaCl, 2.7 mM KCl, 1.5 mM KH2PO4 and 8 mM K2HPO4, pH 7.2); the 4× binding buffer was diluted to a 1× binding buffer with deionized water, then the cells were resuspended with 195 ul of the 1× binding buffer at a cell density of 2-5×10^5/ml; 5 μl of Annexin V-FITC was added to the 195 μl of the cell resuspension and mixed, and incubated in dark at room temperature for 10 minutes; the cells were washed once with 200 μl of the 1× binding buffer, and then resuspended in 190 μl of the 1× binding buffer; 10 μl of propidium iodide (20 μg/ml) was added. A flow cytometry device (Beckman company) was used for detection, and the rate of apoptosis was analyzed using Summit software.
# (§2) The cells were cultured in RPMI 1640 complete medium (Gibco company) containing 10% fetal bovine serum (FBS, Gibco company) in an incubator (Thermo company) at 5% CO2 and 37° C. until reaching logarithmic growth phase, then different concentrations of inhibitors and/or dexamethasone/ethanol/DMSO were added to the culture medium, followed by further culturing (for addition of dexamethasone/ethanol/DMSO, for 48 hours, and for addition of inhibitor, for 24 hours), and apoptosis was detected by Annexin V-FITC PI double staining and proteins were detected by Western blot, as described in Example 1.
# (§3) As described in Example 3, the cells were cultured in RPMI 1640 complete medium containing 10% fetal bovine serum under 5% CO2 and 37° C. until reaching logarithmic growth phase, and then dexamethasone and different concentrations of Akt inhibitor were added to the culture medium, followed by further culture (for addition of dexamethasone/DMSO, for 48 hours, and for addition of the inhibitor, for 24 hours), the apoptosis was detected by Annexin V-FITC PI double staining method and proteins were detected by Western blot as described in Example 1 as well as the cell viability was detected by CCK-8 method.
# The transfected cells were selected and passaged for 3 to 5 passages after resuscitation, with Interferin™ as transfection reagent, and the transfection procedure was performed in accordance with the instruction of the transfection reagent. In short, the cells of logarithmic growth phase were plated at 2×10^5/well, the cells were replaced with fresh complete medium (free of antibiotics) during transfection, siRNA was diluted with Opti-MEM and added with an appropriate amount of […]in™ and mixed, incubated at room temperature for 10 minutes prior to being added dropwise to the cells, and the cells were harvested at appropriate time. The cells were transfected with green fluorescein-labeled siRNA (FAM-siRNA) (siRNA at a final concentration of 20 μM, 1.25 μl/well), and the transfection efficiency was observed using a fluorescence microscope 24 hours later. The dexamethasone group was added 24 hours after transfection, followed by culture for further 24 hours, and then the cells were collected for observation; and the equal amount of anhydrous ethanol was added to the control group.
# SP2/0 cells = assay: Apoptosis by Annexin V-FITC PI double staining, SP2/0; format: cell-based, mouse; conditions: compared to dexamethasone alone; FIG. 2M
# Procedure: as §1, with “software. […]” for “software.”
# Raji cells = assay: Apoptosis by Annexin V-FITC PI double staining, Raji; format: cell-based, human; conditions: compared to dexamethasone alone; FIG. 2K, 2N
# Procedure: as §1, with “software. […]” for “software.”
# CCRF-CEM cells = assay: Apoptosis by Annexin V-FITC PI double staining (flow cytometry), CCRF-CEM; format: cell-based, human
# Procedure: (§4) The control group was not added with any reagents. All experiments were performed in triplicate.
# as §1, §2, §3
# [1] = mouse, in vivo
# Molt4 cells = assay: Apoptosis by Annexin V-FITC PI double staining, Molt4; format: cell-based, human; conditions: compared to the only dexamethasone group; FIG. 2E
# Procedure: as §1, with “software. […]” for “software.”
# [2] = system: Akt/FoxO3a/Bim signaling pathway in CCRF-CEM cells; assay: Western blot of Akt/FoxO3a/Bim signaling pathway proteins in CCRF-CEM cells; format: cell-based, human
# Procedure: as §4
# Protein detection by Western blot: in the examples of the present invention, Akt antibody (rabbit derived), phosphorylated Akt antibody (rabbit derived), FoxO3a antibody (rabbit derived), phosphorylated FoxO3a antibody (rabbit derived) and GAPDH antibody (rabbit derived) and secondary antibodies were all purchased from CST company. The cells were collected in a centrifuge tube and centrifuged at 1000 rpm, the supernatant was discarded and the cells were washed twice with PBS pre-cold at 4° C.; cell lysis buffer (150 mM NaCl, 1% NP-40, 0.1% SDS, 2 μg/ml Aprotinin, 2 μg/ml Leupeptin, 1 mM PMSF, 1.5 mM EDTA, 1 mM sodium vanadate) was added and the cells were lysed on ice for 40 minutes, the cell lysate was centrifuged at 20000 rpm, 4° C. for 15 minutes, and the supernatant was collected; a protein loading buffer for sodium dodecyl sulfate polyacrylamide (SDS-PAGE) gel electrophoresis (1.25 mL 1MTris-HCl (pH6.8), 0.5 g SDS, 25 mg BPB, 2.5 mL glycerol, 5 mL deionized water) was added, followed by boiling for 5 minutes to denature proteins; the loading buffer containing denatured proteins was applied to 10% SDS-PAGE for electrophoresis at 120 V, and then transferred to a PVDF membrane (Sangon Biotech (Shanghai) Co., Ltd.) at 130 V for 1.5 hours; after the membrane transfer was completed, the PVDF membrane was immediately rinsed with a Western washing solution (150 mmol/L NaCl, 50 mmol/L Tris-HCl (pH 7.5)) for 1-2 minutes; added with 5% non-fat milk powder (Shanghai Biotechnology Co., Ltd.), agitated gently and then blocked at room temperature for 60 minutes; a primary antibody diluted appropriately with 5% non-fat milk powder was added, and incubated overnight at room temperature with gentle agitating; the primary antibody was recovered and the membrane was washed three times with the washing solution for 5-10 minutes each; a horseradish peroxidase-labeled secondary antibody diluted appropriately with the Western washing solution was added, and incubated at room temperature for 1 hour with gentle agitating; the secondary antibody was recovered and the membrane was washed three times with the Western washing solution for 5-10 minutes each. An appropriate amount of developing solution (DAB 4 mg, 30% hydrogen peroxide 15 μL, 0.01 M Tris-Cl (pH 7.5) 5 mL) was dropped on the PVDF membrane, the image was detected using a bioluminescence image colorimeter and a gel imaging system (Thermo company), and the quantitative analysis of bands was performed using Image Lab software.
# as §2
# Methods: CCRF-CEM cells were cultured in RPMI 1640 complete medium (Gibco company) containing 10% fetal bovine serum (FBS, Gibco company) in an incubator (Thermo company) at 5% CO2 and 37° C. until reaching logarithmic growth phase, then DMSO, dexamethasone and different inhibitors (DMSO: 0.1%, dexamethasone: 0.1 μM, inhibitors: 0.8 μM) were added to the culture medium, and further cultured (for addition of dexamethasone or DMSO, for 48 hours, and for addition of inhibitors, for 24 hours), and the proteins were detected by Western blot, as described in Example 1.
# [3] = system: CCRF-CEM tumor-bearing mice; assay: Glucocorticoid sensitization in CCRF-CEM tumor-bearing nude mice; format: in vivo
# Procedure: The overall survival time, tumor size and spleen cell apoptosis of the tumor-bearing mice were measured, and the pathological HE staining was carried out to tumors.
# The overall survival, tumor size and spleen size of the tumor-bearing mice were measured, the pathological sections of tumor were for HE and Ki-67 staining, and the pathological sections of spleen were for HE, CD3, and TdT staining.
# [4] = system: L-02 human-derived healthy liver cell line
# Daudi cells [5] = assay: Apoptosis by Annexin V-FITC PI double staining, Daudi; format: cell-based, human; conditions: compared to the dexamethasone group; FIG. 2K, 4L
# Procedure: as §1
# as §2, with “1. […]” for “1.”
# [6] = system: L-02 human-derived healthy liver cell line; assay: CCK-8 viability of healthy liver cells L-02; conditions: FIG. 6A
# [7] = Toxicity in tumor-bearing nude mice (peripheral blood test, organ pathology)
# Daudi cells [8] = assay: Cell viability by CCK-8 and combination index, Daudi; format: cell-based, human; conditions: B lymphoma cells; as shown in Table 1
# Procedure: as §3
# The inhibitory effect of two drugs (dexamethasone and an inhibitor) alone and in combination on various lymphocyte lines was observed by CCK-8 method (CCK-8 kit), and then the half-inhibitory concentration of each drug was calculated using the median effect equation, and the combination index (CI) of the two drugs used in combination was calculated using CompuSyn software.
# (1) the lymphocytes of logarithmic growth phase were taken and made to a cell suspension of 5×10^4/mL, a blank control group (5 wells), a dexamethasone group (3 wells for each concentration, triplicates), a single inhibitor group (3 wells for each concentration, triplicates), a dexamethasone plus inhibitor group (3 wells for each combined concentration, triplicates) were prepared, 180 μL of the suspension was seeded to each well of a 96-well plate, and incubated for 24 hours in an incubator at 5% CO2 and 37° C.
# Based on the drug resistance of cells, the ratio of two drugs was fixed. The dexamethasone group was cultured for 48 hours while the inhibitor group was cultured for 24 hours.
# (3) 10 μl of CCK-8 was added to each well, and cultured for 2 hours, and the optical density (OD) was measured at 450 nm using an automatic microplate reader, and the proliferation inhibition rate of the drug on cell was calculated.
# (4) the proliferation inhibition rate was calculated according to the following equation: cell proliferation inhibition rate=(1-average OD value in the test group/average OD value in the control group)×100%, and the effect of interaction between the two drugs was analyzed by Chou-Talalay combination index method.
# [9] = CCRF-CEM, inhibitors 0.8 μM, FIG. 5A
structure (smiles),measurement,setting,value
CC[n+]1c(/C=C/N(C)c2ccccc2)n(-c2ccccc2)c2ccc(-c3nc4ccccc4s3)cc21.[I-] [Akt IV],"apoptosis of Jurkat cells, inhibitor in combination with dexamethasone",Jurkat cells,significantly increased
same,"apoptosis of SP2/0 cells, inhibitor in combination with dexamethasone",SP2/0 cells,significantly increased
same,"apoptosis of Raji cells, inhibitor in combination with dexamethasone",Raji cells,significantly increased
same,sensitization effect to glucocorticoids compared with other cell proliferation pathway inhibitors,"CCRF-CEM cells; CCRF-CEM, in combination with dexamethasone, FIG. 2L",strongest effect of inducing apoptosis in combination with dexamethasone
same,"apoptosis rate of CCRF-CEM cells, different concentrations of Akt inhibitor in combination with dexamethasone",CCRF-CEM cells; FIG. 2C,increased along with the increased concentration of the Akt inhibitor
same,"apoptosis of CCRF-CEM cells induced by dexamethasone, inhibitor plus dexamethasone","CCRF-CEM cells; compared to dexamethasone alone, FIG. 2A: Akt inhibitor 1 μM, dexamethasone 1 μM, LY294002 30 μM, FIG. 2G, 2J, 2K",significantly increased
same,liver toxicity,[1],obvious liver toxicity
same,"apoptosis rate of Molt4 cells, inhibitor in combination with dexamethasone",Molt4 cells,significantly increased
same,"expression of pro-apoptosis factor Bim, inhibitor plus dexamethasone","[2]; compared to the only dexamethasone group, FIG. 2B, 2H",up-regulated
same,"expression of phosphorylated FoxO3a, inhibitor plus dexamethasone","[2]; compared to the only dexamethasone group, FIG. 2B, 2H, 2I",significantly down-regulated
same,size of subcutaneous tumor,"[3]; Akt inhibitor 1.25 μg/mouse plus dexamethasone 0.1 mg/mouse i.p. once daily 7 days, vs single dexamethasone group, FIG. 3A, 3B",synergized with dexamethasone to reduce the size of subcutaneous tumor
same,overall survival of tumor-bearing mice,"[3]; Akt inhibitor in combination with dexamethasone vs single dexamethasone group, FIG. 3D",significantly increased
same,apoptosis of spleen lymphocytes in the tumor-bearing mice,"[3]; Akt inhibitor plus dexamethasone vs single dexamethasone group, FIG. 3E",significantly increased
O=c1[nH]c2ccccc2n1C1CCN(Cc2ccc(-c3nc4cc5nc[nH]c5cc4nc3-c3ccccc3)cc2)CC1 [Akti-1/2],recovery of liver cell activity,[4],gradually recovered after 24 hours of administration
same,"apoptosis of Jurkat cells, inhibitor in combination with dexamethasone",Jurkat cells,significantly increase
same,"apoptosis of Daudi cells, inhibitor in combination with dexamethasone",Daudi cells [5],significantly increase
same,damage to liver cells,"[6]; DEX 0.1 μM, inhibitors 0.8 μM",certain damage
same,liver cell activity,[6]; after 12 hours of administration,50.5%
same,liver pathology (HE staining),"[7]; 7-day administration, FIG. 8A, 8B",did not cause morphological changes of the liver tissues
same,level of TBIL,"[7]; compared to the NC group, FIG. 6I",significantly increased
same,level of peripheral blood AST,"[7]; compared to the normal saline group (NC), FIG. 3F, 6H",significantly increased
same,level of peripheral blood ALT,"[7]; compared to the normal saline group (NC), i.p. 7 days, FIG. 3F, 6G",significantly increased
same,expression of p-Akt1,[2]; [9],reduced
same,expression of p-Akt2,[2]; [9],reduced
same,effect of inhibitor in combination with dexamethasone in B lymphoma cells (in words),Daudi cells [8],moderate synergistic effect
